Laboratory results from patent US5405857A, “3-substituted 1,2,3,4,-oxatriazole-5-imine compounds, a process for the preparation thereof and a pharmaceutical preparation containing said compounds” (A/S GEA Farmaceutisk Fabrik, priority 1991, dated 1995).

Legend:
pre-contracted trachea = assay: Relaxation of pre-contracted isolated trachea; parameters: species or system guinea pig; conditions: Cavia porcellus; carbamylcholine 0.3 μM, Krebs buffer, 37° C.
Experimental: Compounds according to the invention were tested for their ability to relax a pre-contracted trachea. A contraction of the respiratory passages in combination with a swelling of the mucuos membrane therein presents a vital factor at asthmatic conditions. Relaxation or dilation of the contracted respiratory passages will improve the asthmatic condition.
An isolated trachea from a guinea pig is used. After preparation of a strip which has maintained the circular musculature, the organ is divided into two parts of equal size. The two tracheal strips are suspended in their respective organ bath and connected to a transducer recording the contraction and relaxation of the organ by means of a recorder. The two tracheal strips are continuously bathed in a Krebs buffer at 37° C., constantly bubbled with carbogen (95% O2 and 5% CO2). After an equilibration time of about 3 hours the organs are tested for their sensitivity (contractility) to carbamylcholin a bolus being added directly to the bath (0.3 μM). If the contraction is satisfactory, the organs are transferred to the Krebs buffer containing the same concentration of carbamylcholine. The organs are now constantly exposed to the carbamylcholine and slowly develop a permanent contraction ("asthma"). The test substances are in bolus form added directly to the organ bath. After maximum effect (relaxation) the substances are removed by washing out and the tracheal strip reverts to its permanent contraction state. […] An EC50 -value (that is the concentration relaxing the organ by 50% relative to the maximum relaxation) is calculated for each test substance by means of a linear regression analysis (log concentration (μM) as a constant ad abscissa and % relaxation as variable ad ordinate). Sodium nitroprusside (NNP) and SIN-1 are used as reference substances.

[1] = tested on: polymorph nuclear leukocytes (PMNs), c-GMP; assay: Stimulation of c-GMP content in PMNs; format: cell-based, human; conditions: 37° C., 10 minutes
Experimental: Compounds according to the invention were tested for their ability to increase the content of cyclic guanosine monophosphate (c-GMP), to inhibit the synthesis of the leukotriene B4 (LTB4), and to inhibit the chemotactical movement of polymorph nuclear leukocytes (PMN). The polymorph nuclear leukocytes play a vital part in the cellular part of the inflammation process. At diseases, such as asthma, the mucuos membrane of the respiratory passages is swollen as a result of an inflammation with a significant infiltration of polymorph nuclear leukocytes (PMN's) in particular. Particularly effective substances for the treatment of asthma are such which in addition to relaxing the musculature in the respiratory passages also have an anti-inflammatory effect on the cellular phase of the inflammatory process, that is inhibiting the leukocyte function.
Isolated human PMNs are incubated at 37° C. for 10 minutes, whereafter the content of cyclic guanosine monophosphate (c-GMP) is measured. Further, the synthesis of the LTB4 is determined after stimulation with Ca-ionophore (A23187) and the chemotaxis (controlled movement) towards FMLP (a substance attracting the polymorph nuclear leukocytes, PMNs) is determined.
Three compounds according to the invention and the reference substance SIN-1 were tested for their ability to stimulate the content of cyclic guanosine monophosphate (c-GMP).

COc1ccc(Cl)cc1-[n+]1noc([NH-])n1 [Example 20]
EC50 (pre-contracted trachea): 2.7 µM
c-GMP in PMNs ([1]; 1 μM): 175 fmole/10^6 cells
c-GMP in PMNs ([1]; 10 μM): 492 fmole/10^6 cells
c-GMP in PMNs ([1]; 100 μM): 866 fmole/10^6 cells
